Assay [1] deals with HER2 amplified (HER2-positive PIK3CA-mutant) breast cancer cell lines. Description: Viability assay (CellTiter-Glo), HER2 amplified breast cancer cell lines. In kind it is cell-based. The conditions noted are these: viability by ATP quantification. The source says:
(§1) In a cell proliferation assay, we investigated the effect of inavolisib and alpelisib (both PI3Kα specific inhibitors) on vialibility of breast cancer cell lines having different HER2 expression and PIK3CA mutant status. Unexpectedly, we observed a significant difference between the sensitivity of inavolisib and alpelisib in HER2 amplified (˜20 fold difference between the mean IC50 values) versus HER2 negative cell lines (˜6-fold difference between two inhibitors). Both inhibitors were not differentiated in wild-type (WT) cell lines regardless of HER2 status (FIG. 1).
(§2) Cell lines were obtained from the ATCC. All cell lines underwent authentication by Short Tandem Repeat profiling, SNP fingerprinting, and mycoplasma testing (Yu M. et al. “A resource for cell line authentication, annotation and quality control” Nature 520, 307-311 (2015)). Cell lines were grown under standard tissue-culture conditions in RPMI media with 10% fetal bovine serum (Gibco, 10082-147), 100 U/mL penicillin-streptomycin (Gibco, 15140-122), 2 mmol/L L-glutamine (Gibco, 15030-081). […]
(§3) Viability assay: Cells were seeded (1000-2000 cells/well) in 384-well plates for 16 hours. […] After 4 days, relative numbers of viable cells were measured by luminescence using CellTiter-Glo® (Promega) according to the manufacturer's instructions and read on a Wallac Multilabel Reader (PerkinElmer, Foster City). […]
On the technique in general: ATP-based viability assays read luminescence as a measure of living cells.

Assay [2] concerns HER2 negative (PIK3CA-mutant) breast cancer cell lines. Description: Viability assay (CellTiter-Glo), HER2 negative breast cancer cell lines. The class given is cell-based. The conditions noted are these: viability by ATP quantification.
Source text: as §1, §2, §3

Assay [3] has as its system KPL-4 (HER2-positive, PIK3CA H1047R) breast cancer xenograft. Description: In vivo tumor growth inhibition, KPL-4 breast cancer xenograft model. The conditions noted are these: inavolisib 25 mg/kg orally daily 28 days, trastuzumab 3 mg/kg and pertuzumab 2.5 mg/kg i.p. weekly 4 weeks.
Description: The in vivo efficacy of the test compounds and combinations was tested in a KPL-4 (HER2-positive, PIK3CA H1047R) breast cancer xenograft model. […] Tumor volumes were measured using Ultra Cal-IV calipers (Model 54-10-111; Fred V. Fowler Co.; Newton, MA). The following formula was used in Excel, version 11.2 to calculate tumor volume: Tumor Volume (mm^3)=(Length×Width^2)×0.5. Mice for efficacy studies were distributed into 8-10 mice/group with a mean tumor volume of 200 to 250 mm^3 at the initiation of dosing. A linear mixed effect (LME) modeling approach was used to analyze the repeated measurement of tumor volumes from the same animals over time (Pinheiro et al., “Linear and Nonlinear Mixed Effects Models” R package version 3; 1-131 (2017)). Cubic regression splines were used to fit a non-linear profile to the time courses of log^2 tumor volume at each dose level. These non-linear profiles were then related to dose within the mixed model. Tumor growth inhibition as a percentage of vehicle control (%TGI) was calculated as the percentage of the area under the fitted curve (AUC) for the respective dose group per day in relation to the vehicle, using the following formula: %TGI=100×(1−AUCdose/AUCvehicle).
Tumor sizes and mouse body weights were recorded twice weekly, and mice with tumor volume exceeding 2000 mm^3 or body weight loss of 20% of starting weight were promptly euthanized.
In assay [4] the target is Class I PI3K alpha isoform (PI3Kα) versus Class I PI3K beta, delta, and gamma isoforms (Homo sapiens, UniProt P42336). To be noted: cited from earlier work.
Chain of Class I PI3K alpha isoform (PI3Kα) versus Class I PI3K beta, delta, and gamma isoforms (P42336 whole entry, canonical isoform): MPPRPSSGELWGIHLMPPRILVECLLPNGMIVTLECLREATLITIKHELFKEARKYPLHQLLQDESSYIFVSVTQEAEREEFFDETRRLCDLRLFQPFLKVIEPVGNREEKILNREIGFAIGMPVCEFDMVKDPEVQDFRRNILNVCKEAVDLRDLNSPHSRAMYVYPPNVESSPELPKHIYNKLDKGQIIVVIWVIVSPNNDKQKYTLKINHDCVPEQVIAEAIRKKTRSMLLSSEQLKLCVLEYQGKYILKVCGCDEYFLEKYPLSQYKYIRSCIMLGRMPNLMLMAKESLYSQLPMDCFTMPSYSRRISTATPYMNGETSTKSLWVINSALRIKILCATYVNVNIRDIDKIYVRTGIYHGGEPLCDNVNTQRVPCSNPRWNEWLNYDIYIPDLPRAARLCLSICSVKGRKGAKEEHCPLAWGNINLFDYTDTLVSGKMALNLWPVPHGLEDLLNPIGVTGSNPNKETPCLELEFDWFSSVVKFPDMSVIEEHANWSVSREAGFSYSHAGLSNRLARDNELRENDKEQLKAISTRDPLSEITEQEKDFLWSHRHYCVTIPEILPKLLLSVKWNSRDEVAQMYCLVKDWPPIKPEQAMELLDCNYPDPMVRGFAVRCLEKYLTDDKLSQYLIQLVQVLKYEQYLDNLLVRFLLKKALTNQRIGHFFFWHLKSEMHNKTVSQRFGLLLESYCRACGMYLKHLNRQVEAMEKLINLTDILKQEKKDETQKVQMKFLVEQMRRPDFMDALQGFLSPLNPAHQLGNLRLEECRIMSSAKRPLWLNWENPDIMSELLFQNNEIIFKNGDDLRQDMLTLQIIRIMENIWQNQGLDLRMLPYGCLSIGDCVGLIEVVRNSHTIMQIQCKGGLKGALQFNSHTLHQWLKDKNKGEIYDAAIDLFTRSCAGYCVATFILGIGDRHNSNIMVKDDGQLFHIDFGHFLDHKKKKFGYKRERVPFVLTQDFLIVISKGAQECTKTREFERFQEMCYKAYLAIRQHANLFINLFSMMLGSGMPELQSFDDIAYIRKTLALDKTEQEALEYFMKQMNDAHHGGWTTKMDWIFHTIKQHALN
Chain of Class I PI3K alpha isoform (PI3Kα) versus Class I PI3K beta, delta, and gamma isoforms (P27986 whole entry partner, canonical isoform): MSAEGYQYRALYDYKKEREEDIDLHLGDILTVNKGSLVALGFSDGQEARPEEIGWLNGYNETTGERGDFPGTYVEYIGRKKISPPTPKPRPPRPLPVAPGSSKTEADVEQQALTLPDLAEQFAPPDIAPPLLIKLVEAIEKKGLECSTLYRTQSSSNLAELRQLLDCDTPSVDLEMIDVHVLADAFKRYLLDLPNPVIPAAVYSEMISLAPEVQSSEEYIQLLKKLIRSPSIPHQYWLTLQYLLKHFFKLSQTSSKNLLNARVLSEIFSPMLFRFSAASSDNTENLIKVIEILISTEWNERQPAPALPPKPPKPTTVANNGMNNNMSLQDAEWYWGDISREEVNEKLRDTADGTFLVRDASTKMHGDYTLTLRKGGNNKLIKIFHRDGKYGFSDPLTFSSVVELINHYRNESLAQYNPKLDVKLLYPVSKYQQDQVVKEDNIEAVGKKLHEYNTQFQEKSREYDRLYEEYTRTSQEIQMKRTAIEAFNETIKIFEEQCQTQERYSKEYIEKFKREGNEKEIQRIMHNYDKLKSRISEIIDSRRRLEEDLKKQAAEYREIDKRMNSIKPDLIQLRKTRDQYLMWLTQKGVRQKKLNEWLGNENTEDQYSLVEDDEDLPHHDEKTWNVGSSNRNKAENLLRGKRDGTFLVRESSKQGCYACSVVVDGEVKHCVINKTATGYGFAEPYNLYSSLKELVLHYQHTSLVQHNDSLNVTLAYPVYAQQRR

A value given as a limit tells only on which side of the number the result lay.

Regarding `C[C@H](Nc1ccc2c(c1)OCCn1cc(N3C(=O)OC[C@H]3C(F)F)nc1-2)C(N)=O` [inavolisib, (S)-2-((2-((S)-4-(difluoromethyl)-2-oxooxazolidin-3-yl)-5,6-dihydrobenzo[f]imidazo[1,2-d][1,4]oxazepin-9-yl)amino)propanamide], the “difference between the mean IC50 values of inavolisib and alpelisib” value in assay [1] is listed as about 20 fold. Besides, the “difference between two inhibitors (mean IC50 values of inavolisib and alpelisib)” value in assay [2] was 6 fold. Besides, in assay [3], the “Growth Effect Duration” value is reported as over 31.0 and the “Growth Rate Contrast” value is −0.069. The “Growth Contrast” value in assay [3] (9 mice per group) is listed as −0.086. Moreover, the “less potent biochemical inhibition for other Class I PI3K beta, delta, and gamma isoforms (selectivity for PI3Kα)” value in assay [4] is reported as over 300 fold.

These data come from patent US20230310455A1, “COMBINATION THERAPIES FOR TREATMENT OF HER2 CANCER” (Genentech, Inc., priority 2020, published 2023).
